How the values were obtained:
Format in all cases: in vivo
[1] = test system: barnyardgrass (Echinochloa crus-galli); experiment: Test B flooded paddy test; conditions: Echinochloa crus-galli, 360 h, Flood, 250 g ai/ha; visually evaluated after 13 to 15 d; read-out: Plant response rating, Barnyardgrass (0 to 100 scale where 0 is no effect and 100 is complete control)
In short: (§1)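 Flooding to 3 cm over soil accompanied treatment, which consisted of adding compound to the standing water around 2-leaf plants; depth was then maintained. Visual assessment versus controls followed at 13 to 15 d (scale 0–100, 0 meaning no effect).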

[2] = test system: ducksalad (Heteranthera limosa); experiment: Test B flooded paddy test; conditions: Heteranthera limosa, 360 h, Flood, 250 g ai/ha; visually evaluated after 13 to 15 d; read-out: Plant response rating, Ducksalad (0 to 100 scale where 0 is no effect and 100 is complete control)
In short: as §1

rice (Oryra sativa) = experiment: Test B flooded paddy test; conditions: Oryza sativa, 360 h, Flood, 250 g ai/ha; visually evaluated after 13 to 15 d; read-out: Plant response rating, Rice (0 to 100 scale where 0 is no effect and 100 is complete control)
In short: as §1

[3] = test system: sedge, umbrella (small-flower umbrella sedge, Cyperus difformis); experiment: Test B flooded paddy test; conditions: Cyperus difformis, 360 h, Flood, 250 g ai/ha; visually evaluated after 13 to 15 d; read-out: Plant response rating, Sedge, Umbrella (0 to 100 scale where 0 is no effect and 100 is complete control)
In short: as §1

[4] = test system: ryegrass, Italian (Italian ryegrass, Lolium multiflorum); experiment: Test A preemergence; conditions: Lolium multiflorum, pre-emergence, 240 h, Preemergence
In short: (§2)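 Compounds were formulated in a non-phytotoxic solvent mixture with surfactant and applied as a preemergence directed soil spray after seeding, or sprayed postemergence over plants 2 to 10 cm tall at the one- to two-leaf stage. Evaluation after about 10 d compared treated with untreated controls, using a scale from 0 (no effect) to 100 (complete control).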

[5] = test system: pigweed (Amaranthus retroflexus); experiment: Test A preemergence; conditions: Amaranthus retroflexus, pre-emergence, 240 h, Preemergence
[6] = test system: barnyardgrass (Echinochloa crus-galli); experiment: Test A preemergence; conditions: Echinochloa crus-galli, pre-emergence, 240 h, Preemergence
In short: as §2

[7] = test system: giant foxtail (Setaria faberii); experiment: Test A preemergence; conditions: Setaria faberi, pre-emergence, 240 h, Preemergence
In short: as §2

[8] = test system: ragweed (common ragweed, Ambrosia elatior); experiment: Test A preemergence; conditions: Ambrosia artemisiifolia, pre-emergence, 240 h, Preemergence
In short: as §2

Kochia (Kochia scoparia) [9] = experiment: Test A preemergence; conditions: Bassia scoparia, pre-emergence, 240 h, Preemergence
In short: as §2

[10] = test system: ryegrass, Italian (Italian ryegrass, Lolium multiflorum); experiment: Test A postemergence; conditions: Lolium multiflorum, post-emergence, 240 h, Postemergence, read-out: Ryegrass, Italian plant response rating (0 to 100 scale)
In short: as §2

[11] = test system: Galium (catchweed bedstraw, Galium aparine); experiment: Test A postemergence; conditions: Galium, post-emergence, 240 h, Postemergence, read-out: Galium plant response rating (0 to 100 scale)
In short: as §2

corn (Zea mays) = experiment: Test A postemergence; conditions: Zea mays, post-emergence, 240 h, Postemergence, read-out: Corn plant response rating (0 to 100 scale)
In short: as §2

[12] = test system: pigweed (Amaranthus retroflexus); experiment: Test A postemergence; conditions: Amaranthus retroflexus, post-emergence, 240 h, Postemergence, read-out: Pigweed plant response rating (0 to 100 scale)
In short: as §2

[13] = test system: barnyardgrass (Echinochloa crus-galli); experiment: Test A postemergence; conditions: Echinochloa crus-galli, post-emergence, 240 h, Postemergence
In short: as §2

[14] = test system: blackgrass (Alopecurus myosuroides); experiment: Test A postemergence; conditions: Alopecurus myosuroides, post-emergence, 240 h, Postemergence, read-out: Blackgrass plant response rating (0 to 100 scale)
In short: as §2

[15] = test system: giant foxtail (Setaria faberii); experiment: Test A postemergence; conditions: Setaria faberi, post-emergence, 240 h, Postemergence, read-out: Foxtail, Giant plant response rating (0 to 100 scale)
In short: as §2

[16] = test system: wheat (Triticum aestivum); experiment: Test A postemergence; conditions: Triticum aestivum, post-emergence, 240 h, Postemergence, read-out: Wheat plant response rating (0 to 100 scale)
In short: as §2

[17] = test system: ragweed (common ragweed, Ambrosia elatior); experiment: Test A postemergence; conditions: Ambrosia artemisiifolia, post-emergence, 240 h, Postemergence, read-out: Ragweed plant response rating (0 to 100 scale)
In short: as §2

Kochia (Kochia scoparia) [18] = experiment: Test A postemergence; conditions: Bassia scoparia, post-emergence, 240 h, Postemergence, read-out: Kochia plant response rating (0 to 100 scale)
In short: as §2

[19] = 125 g ai/ha, visual rating about 10 d after treatment
[20] = 31 g ai/ha, 0 is no effect, 100 is complete control

O=C1NC[C@H](c2cc(Br)cc(Br)c2)[C@H]1C(=O)Nc1cccc(F)c1F [Compound 1366] was tested, and the pest or weed control at 250 g/ha [1] was 40%, the pest or weed control at 250 g/ha [2] was 80% and the pest or weed control at 250 g/ha (rice (Oryra sativa)) was 0%. For the same molecule, the pest or weed control at 250 g/ha [3] was 0%, the pest or weed control at 31 g/ha ([4]; 31 g ai/ha, 0 to 100 scale where 0 is no effect and 100 is complete control, read-out: Ryegrass, Italian plant response rating) was 0% and the pest or weed control at 125 g/ha ([4]; 125 g ai/ha, 0 to 100 scale (0 no effect, 100 complete control), read-out: Plant response rating, Ryegrass, Italian) was 10%. The pest or weed control at 31 g/ha ([5]; 31 g ai/ha, 0 to 100 scale where 0 is no effect and 100 is complete control, read-out: Pigweed plant response rating) was 0%, the pest or weed control at 125 g/ha ([5]; 125 g ai/ha, 0 to 100 scale (0 no effect, 100 complete control), read-out: Plant response rating, Pigweed) was 0% and the pest or weed control at 31 g/ha ([6]; 31 g ai/ha, 0 to 100 scale where 0 is no effect and 100 is complete control, read-out: Barnyardgrass plant response rating) was 60%. The pest or weed control at 125 g/ha ([6]; 125 g ai/ha, 0 to 100 scale (0 no effect, 100 complete control), read-out: Plant response rating, Barnyardgrass) was 70%, the pest or weed control at 31 g/ha ([7]; 31 g ai/ha, 0 to 100 scale where 0 is no effect and 100 is complete control, read-out: Foxtail, Giant plant response rating) was 50% and the pest or weed control at 125 g/ha ([7]; 125 g ai/ha, 0 to 100 scale (0 no effect, 100 complete control), read-out: Plant response rating, Foxtail, Giant) was 90%. The pest or weed control at 31 g/ha ([8]; 31 g ai/ha, 0 to 100 scale where 0 is no effect and 100 is complete control, read-out: Ragweed plant response rating) was 0%, the pest or weed control at 125 g/ha ([8]; 125 g ai/ha, 0 to 100 scale (0 no effect, 100 complete control), read-out: Plant response rating, Ragweed) was 0% and the pest or weed control at 31 g/ha (Kochia (Kochia scoparia) [9]; 31 g ai/ha, 0 to 100 scale where 0 is no effect and 100 is complete control, read-out: Kochia plant response rating) was 0%. It also gave a pest or weed control at 125 g/ha (Kochia (Kochia scoparia) [9]; 125 g ai/ha, 0 to 100 scale (0 no effect, 100 complete control), read-out: Plant response rating, Kochia) of 0%, a pest or weed control at 125 g/ha [10, 19] of 0% and a pest or weed control at 31 g/ha [10, 20] of 0%. It also gave a pest or weed control at 125 g/ha [11, 19] of 70%, a pest or weed control at 31 g/ha [11, 20] of 0% and a plant injury at 125 g/ha (corn (Zea mays); [19]) of 0%. The plant injury at 31 g/ha (corn (Zea mays); [20]) was 0%, the pest or weed control at 125 g/ha [12, 19] was 80% and the pest or weed control at 31 g/ha [12, 20] was 0%. For the same molecule, the pest or weed control at 125 g/ha ([13]; 125 g ai/ha, visual rating about 10 d after treatment, read-out: Barnyardgrass plant response rating (0 to 100 scale, 0 no effect, 100 complete control)) was 70%, the pest or weed control at 31 g/ha ([13]; 31 g ai/ha, 0 is no effect, 100 is complete control, read-out: Barnyardgrass plant response rating (0 to 100 scale)) was 20% and the pest or weed control at 125 g/ha [14, 19] was 0%. For the same molecule, the pest or weed control at 31 g/ha [14, 20] was 0%, the pest or weed control at 125 g/ha [15, 19] was 70% and the pest or weed control at 31 g/ha [15, 20] was 30%. It also gave a plant injury at 125 g/ha [16, 19] of 0%, a plant injury at 31 g/ha [16, 20] of 0% and a pest or weed control at 125 g/ha [17, 19] of 0%. The pest or weed control at 31 g/ha [17, 20] was 0%, the pest or weed control at 125 g/ha (Kochia (Kochia scoparia) [18]; [19]) was 0% and the pest or weed control at 31 g/ha (Kochia (Kochia scoparia) [18]; [20]) was 0%.
